Test results from article PMC5442318, “Hundreds of dual-stage antimalarial molecules discovered by a functional gametocyte screen” (Nature Communications, 2017).
pIC50: −log10 of the molar value. Read-outs that look alike come from different tables or passages of the source.

Experiments:
[1] = test system: P. falciparum stage V female gametocytes; assay: P. falciparum female gametocyte activation assay (Pf FGAA), 24 h or 48 h preincubation, Pfs25 expression readout; assay type: cell-based, Plasmodium falciparum NF54; conditions: for IC50: 24h incubation time, read-out: Pf FGAA IC50 (µM) 24h; for pIC50: mean, read-out: Gametocytes mean Pf FGAA IC50; for Pf FGAA classification: SLOW / FAST / GAMETE from activity at 48h, 24h, 0h incubation
Outline: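 Female activation, triggered by xanthurenic acid and cooling, was scored by imaging Cy3-labelled anti-Pfs25 female gametes after 24 h at 26 °C. Beforehand, purified NF54 stage V gametocytes had been incubated with compound for either 24 h or 48 h (37 °C, 3% O2). Values are pIC50 from full-curve regression.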

[2] = test system: P. falciparum stages IV–V gametocytes; assay: Gametocytocidal ATP-depletion assay (gametocyte ATP bioluminescence); assay type: cell-based, Plasmodium falciparum; conditions: for inhibition at 2 µM: Plasmodium falciparum, mean
Outline: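 Read-out is luciferase luminescence of parasite ATP (BacTiter-Glo), standing in for viability. Double-purified mature stage IV–V gametocytes, 12,500 per well, were exposed 48 h at 37 °C in low-O2 gas; screening concentration 2 μM.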

[3] = test system: P. falciparum female gametes; assay: Pf FGAA with compounds added 30 min after triggering gametocyte activation (gamete-targeting); assay type: cell-based, Plasmodium falciparum NF54; conditions: 0h incubation time
[4] = test system: HepG2 cells; assay: HepG2 cytotoxicity assay; assay type: cell-based
Outline: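 Luminescent read-out (CellTiter-Glo) taken 10 min after reagent addition at RT; plates and reagent pre-equilibrated 30 min at RT.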

[5] = test system: P. falciparum asexual blood stages; conditions: ref 1 (Gamo, F. J. et al., Nature 465, 305-310, 2010), cited from earlier work; for pIC50: TCAMS asexual blood stage data, read-out: Pf Asexual blood stages XC50; for Pf Asexual stages XC50: TCAMS data
[6] = Plasmodium falciparum, P. falciparum female gametocytes
[7] = HepG2 TOX50 versus Pf FGAA IC50
[8] = P. falciparum female gametocytes
[9] = P. falciparum female gametocyte activation assay

Row | IC50 ([1]; Plasmodium falciparum) | pIC50 [1, 6] | IC50 ([3]; Plasmodium falciparum) | IC50 [1] | pIC50 [1, 8] | IC50 [3] | pIC50 [1, 9] | Structure (SMILES) | Pf FGAA classification [1] | inhibition at 2 µM [2] | Selectivity ratio [4, 7] | HepG2 cells mean TOX50 ([4]; HepG2 cells; mean) | pIC50 [5] | Pf Asexual stages XC50 [5] | Gametocytes mean ATP inhibition at 2µM [2] | HepG2 cells TOX50 ([4]; HepG2 cells) | HepG2 cells mean TOX50 ([4]; mean; HepG2 cells)
1 | 1 µM | 5.76 | 3.99 µM | – | – | – | – | CCCC(=O)NC(c1ccc(C)cc1)c1ccc2cccnc2c1O (stereo not drawn) [TCMDC-123605] | FAST | 20.2% | 5.32 | 9.22 µM | 6.02 | 960 nM | – | – | –
2 | – | – | – | 3.25 µM | 5.80 | > 20 µM | – | Clc1ccc(-c2csc3ncnc(Cl)c23)cc1 [TCMDC-123811] | SLOW | – | – | 94.46 µM | 6.34 | 460 nM | -1.98% | – | –
3 | – | – | – | 0.14 µM | 5.94 | 2.14 µM | – | O=C(Nc1nc(-c2ccccn2)cs1)c1ccc(Br)s1 [TCMDC-123868] | GAMETE | – | – | 37.44 µM | 5.97 | 1060 nM | 29.36% | – | –
4 | – | – | – | > 20 µM | 6.03 | > 20 µM | – | CCOc1ccc(-n2nc3c(Cl)nnc(-c4ccccc4)c3c2-c2ccccc2)cc1 [TCMDC-123899] | SLOW | – | – | >100 µM | 6.64 | 310 nM | -0.60% | >100 µM | –
5 | – | – | – | 0.77 µM | 6.14 | > 20 µM | – | CCc1cc2c(Sc3nnc(N)s3)ncnc2s1 [TCMDC-123993] | FAST | – | – | 32.30 µM | 6.18 | 660 nM | 23.86% | – | –
6 | – | – | – | 1.5 µM | 5.84 | > 20 µM | – | Cc1ccc(Cl)c2sc(N3CCN(C(=O)c4ccc([N+](=O)[O-])o4)CC3)nc12 [TCMDC-124311] | FAST | – | – | 25.79 µM | 6.49 | 320 nM | -39.73% | – | –
7 | 1.38 µM | 5.96 | > 20 µM | – | – | – | – | O=C(c1ccc([N+](=O)[O-])o1)N1CCN(c2nc3c(Cl)cccc3s2)CC1 [TCMDC-124316] | FAST | 0.49% | 38.14 | 41.96 µM | 6.01 | 980 nM | – | – | –
8 | – | – | – | > 20 µM | 6.62 | 14.4 µM | – | c1ccn2c(Sc3ncnc4sccc34)ncc2c1 [TCMDC-124602] | SLOW | – | – | >100 µM | 6.18 | 660 nM | 12.16% | >100 µM | –
9 | 0.71 µM | 5.76 | 2.42 µM | – | – | – | – | C=CCc1cccc(CN2CCC(c3cc(O)nc(-c4ccccn4)n3)CC2)c1O [TCMDC-124851] | FAST | 17.9% | 6.59 | 11.49 µM | 5.96 | 1000 nM | – | – | –
10 | – | – | – | – | – | – | 5.80 | Nc1nc(N)c2cc(NC(=O)c3ccc(Cl)c(Cl)c3)ccc2n1 [TCMDC-141982] | – | – | – | – | 6.82 | – | 1.96% | – | 2.14 µM
11 | – | – | – | – | – | – | 6.05 | Cl.OC(CNCCCCCCNCC(O)c1ccc(Cl)c(Cl)c1)c1ccc(Cl)c(Cl)c1 (stereo not drawn) [TCMDC-141987] | – | – | – | – | 6.04 | – | 0.38% | – | 4.27 µM

More lines, now with the values behind:

Row | Structure (SMILES) | IC50 ([1]; Plasmodium falciparum) | pIC50 [1, 6] | IC50 ([3]; Plasmodium falciparum) | IC50 [1] | pIC50 [1, 8] | IC50 [3] | pIC50 [1, 9] | Pf FGAA classification [1] | inhibition at 2 µM [2] | Selectivity ratio [4, 7] | HepG2 cells mean TOX50 ([4]; HepG2 cells; mean) | pIC50 [5] | Pf Asexual stages XC50 [5] | Gametocytes mean ATP inhibition at 2µM [2] | HepG2 cells TOX50 ([4]; HepG2 cells) | HepG2 cells mean TOX50 ([4]; mean; HepG2 cells)
12 | N#CC(c1ccc(Br)cc1)c1ccc2c(C(F)(F)F)cc(C(F)(F)F)nc2n1 (stereo not drawn) [TCMDC-123754] | > 20 µM | 5.94 | > 20 µM | – | – | – | – | SLOW | -2.55% | 2.01 | 2.32 µM | 6.36 | 440 nM | – | – | –
13 | Cc1ccc(C)c2sc(N3CCN(C(=O)c4ccc([N+](=O)[O-])o4)CC3)nc12 [TCMDC-124315] | – | – | – | 2.82 µM | 5.95 | > 20 µM | – | SLOW | – | – | 37.65 µM | 6.09 | 820 nM | 3.06% | – | –
14 | O=C(Nc1ccc([N+](=O)[O-])cc1)Nc1cc(OCC(F)(F)F)cc(OCC(F)(F)F)c1 [TCMDC-124533] | 2.32 µM | 5.94 | 5.64 µM | – | – | – | – | SLOW | -45.2% | 5.40 | 6.24 µM | 6.33 | 470 nM | – | – | –
15 | Clc1cc(Br)ccc1-c1ccc(CNCC2CCNCC2)o1 [TCMDC-124617] | > 20 µM | 6.14 | > 20 µM | – | – | – | – | SLOW | -8.62% | 6.08 | 4.37 µM | 5.82 | 1510 nM | – | – | –
16 | CN1CCC(N2CCC(Oc3cccc(C(=O)NCCCC4CCCC4)c3)CC2)CC1 [TCMDC-124677] | 3.87 µM | 5.83 | > 20 µM | – | – | – | – | SLOW | -0.79% | 3.34 | 4.90 µM | 6.08 | 230 nM | – | – | –
17 | Cc1ccc2c(c1)c(C1CCN(C(=O)c3ccc([N+](=O)[O-])o3)CC1)cn2C [TCMDC-124787] | – | – | – | 0.88 µM | 5.67 | > 20 µM | – | FAST | – | – | 28.85 µM | 6.12 | 750 nM | -6.61% | – | –
18 | Cc1c(Cn2ncc(N3CCC(N)CC3)c(Cl)c2=O)cccc1NC(=O)Nc1ccc(-c2ccccc2)cc1.O=C(O)C(F)(F)F [TCMDC-141931] | – | – | – | – | – | – | 5.96 | – | – | – | – | 6.15 | – | 22.47% | – | 22.90 µM
19 | O=C(O)CCSSc1cccc[n+]1[O-] [TCMDC-141973] | – | – | – | – | – | – | 7.40 | – | – | – | – | 6.09 | – | 100.49% | – | 19.05 µM
20 | Cl.N=C1C=C(N)C(=O)c2ccccc21 [TCMDC-141992] | – | – | – | – | – | – | 4.93 | – | – | – | – | 5.98 | – | 55.55% | – | 0.52 µM
21 | CCn1c2ccccc2c2cc(C=NN=c3cc(C)[nH]c4ccccc34)ccc21 [TCMDC-142186] | – | – | – | – | – | – | 5.38 | – | – | – | – | 6.51 | – | 36.64% | – | 5.82 µM
22 | Cc1c(N=O)cc(C(C)(C)C)c(O)c1C(=O)Nc1ccc([N+](=O)[O-])cc1Cl [TCMDC-142233] | – | – | – | – | – | – | 5.93 | – | – | – | – | 6.11 | – | -7.78% | – | 1.78 µM
23 | Cl.Nc1c(I)cc(C(=O)Nc2ccc3nc4c(c(N)c3c2)CCCC4)cc1I [TCMDC-142289] | – | – | – | – | – | – | 6.11 | – | – | – | – | 6.85 | – | 70.94% | – | 4.52 µM
24 | O=c1c(NCCCN(Cc2ccc(F)cc2)c2ccccn2)c(NCc2cccnc2)c1=O [TCMDC-142311] | – | – | – | – | – | – | 6.44 | – | – | – | – | 7.22 | – | 58.25% | – | >100 µM
